Data on 10 compounds can be found in PubChem BioAssay (NCI).

“And” between values parts separate entries of the source, which are not always exact repeats. Equal values may be shown once.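 Five concentrations, 48 hours, 96-well plates. GI50 = concentration required for 50% inhibition of growth. TGI marks complete inhibition of growth.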

Holding throughout (assay): inhibition of tumour cell growth, NCI panel, 48 h
The subject of assay [1] is MOLT-4 leukemia.
Assay [2] relates to NCI-H522 lung.
Assay [3] concerns HT29 colon.
The subject of assay [4] is U251 CNS.
For assay [5], the system named is OVCAR-4 ovarian.
The subject of assay [6] is OVCAR-5 ovarian.
The subject of assay [7] is HCT-15 colon.
The test system of assay [8] is SK-MEL-5 melanoma.
Assay [9] concerns MALME-3M melanoma.
Assay [10] has as its system CCRF-CEM leukemia.

Turning to `COc1ccc(C2=NN(C=O)C(c3cccc(Nc4ccnc5cc(Cl)ccc45)c3)C2)cc1` (configuration not stated), the GI50 in assay [1] is 2.37 µM; in assay [2], 1.33 µM; in assay [3] it was 1.65 µM; in [4], 2.77 µM; in [5], 1.54 µM; in assay [6], 11.3 µM. Also, the GI50 in [7] is 2.13 µM; in [8], 0.922 µM; in assay [9], 2040 nM; in assay [10], 2.14 µM. Further, the TGI in assay [1] was 11.9 µM; in assay [2], 12.7 µM; in assay [3], 9.7 µM; in assay [4], 14.4 µM; in assay [5] it was 31.8 µM; in assay [6], more than 100 µM. In addition, the TGI in assay [7] stood at 17 µM; in assay [8] it was 3.71 µM; in [9], 18.9 µM; in [10], 13.1 µM.

Consider `C[C@]12CCCC(=O)C1(O)C[C@H](C(=O)O)CC2` (some centres not stated), for which the TGI in [1], in assay [2], in assay [3], in [4], in [5] and in assay [6] was more than 100 µM throughout. Moreover, the TGI in [7], in assay [8], in [9] and in assay [10] was more than 100 µM throughout.

In the case of `CC[C@]1(O)C(=O)OCc2c1cc1n(c2=O)Cc2cc3c(N)cccc3nc2-1`, the TGI in [1], in assay [2], in assay [3], in [4], in assay [5] and in assay [6] was more than 100 µM each time. Also, the TGI in assay [7], in assay [8], in assay [9] and in assay [10] was more than 100 µM throughout.

Turning to `CC[PH+](CC)CC.O=COC1OC([S-])C(OC=O)C(OC=O)C1OC=O.[Au+]` (configuration not stated), the GI50 was 2.2 µM in assay [1]; 1.17 µM in [2]; 1.65 µM in [3]; 0.368 µM in assay [4]; 1.89 µM in assay [5]; 1.89 µM in assay [6]. Further, the GI50 is 1.14 µM in assay [7], 1.27 µM in assay [8], 1240 nM in assay [9] and 0.64 µM in assay [10]. Further, the TGI in [1] turned out to be 7.61 µM; in [2], 3.97 µM; in assay [3], 5.3 µM; in [4], 1.47 µM; in [5], 4.53 µM; in [6] it was 3.53 µM. Moreover, the TGI amounted to 2.56 µM in assay [7], 2.63 µM in assay [8], 2.58 µM in assay [9] and 4.1 µM in assay [10].

On to `CC(C)c1cccc(C(C)C)c1NC(=O)/C(CC(=O)CC(c1ccccc1)c1c(O)c2ccccc2oc1=O)=N/O` (configuration not stated), for which the TGI in assay [1], in assay [2], in [3], in assay [4], in assay [5] and in [6] was more than 100 µM each time. Also, the TGI in [7], in [8], in [9] and in assay [10] was more than 100 µM in each case.

With `Nc1ccc(C(=O)CC(N)C(=O)O)cc1O` (configuration not stated), the TGI in assay [1], in [2], in [3], in assay [4], in assay [5] and in assay [6] was more than 100 µM in each case. For the same compound, the TGI in [7], in assay [8], in [9] and in [10] was more than 100 µM each time.

For `NC(=O)c1cc2c3ccccc3ccn2c1-c1ccccc1`, the GI50 in assay [1] is 0.521 µM; in [2] it was 0.0666 µM; in assay [3], 0.412 µM; in assay [4], 0.0475 µM; in [5] it was 0.155 µM; in assay [6] it was 5.6 µM. For the same compound, the GI50 in assay [7] was 0.0543 µM; in assay [8] it was 0.0392 µM; in assay [9] it was 16700 nM; in assay [10] it was 0.0425 µM. For the same compound, the TGI in assay [1] was 15.9 µM; in assay [2], 20.8 µM; in assay [3], 9.12 µM; in [4], 14.2 µM; in assay [5] it was more than 54.5 µM; in assay [6], 36.7 µM. The TGI stood at 11.9 µM in assay [7], 3.14 µM in [8], 47.9 µM in [9] and 13.8 µM in [10].

`COC1C2C=CC(C2)[C@H]1[N+](=O)[O-]` (some centres not stated): the TGI in [1], in assay [2], in assay [3], in assay [4], in [5] and in assay [6] was more than 100 µM in each case. Also, the TGI in assay [7], in assay [8], in [9] and in assay [10] was more than 100 µM in each case.

With `C/C=C1\NC(=O)[C@H]2CSSCCC=C[C@H](CC(=O)N[C@H](C(C)C)C(=O)N2)OC(=O)[C@H](C(C)C)NC1=O`, the GI50 in assay [1] was less than 0.01 µM; in assay [2], < 0.01 µM and 0.000105 µM; in assay [3], less than 0.01 µM; in [4], < 0.01 µM and 0.000136 µM; in [5] it was 0.0109 µM and < 0.0102 µM; in [6], < 0.01 µM and 0.000261 µM. For the same compound, the GI50 in assay [7] was 0.203 µM and 0.0551 µM; in assay [8], less than 0.01 µM; in [9], < 10 nM and 0.0209 nM; in assay [10], less than 0.01 µM. The TGI was < 0.01 µM and 0.000166 µM in [2]; < 0.01 µM and 0.0116 µM and 0.0262 µM in [3]; < 0.01 µM and 0.00147 µM and < 0.0252 µM in assay [4]; 0.201 µM and 0.0892 µM and 0.619 µM in [5]; 3.75 µM and 1.59 µM in [7]; < 0.01 µM and 0.000359 µM in [8]. For the same compound, in [10], the TGI was 0.273 µM and 0.0534 µM and 0.102 µM.

Consider `N.N.N.N.O=C([O-])C(Cl)Cl.O=C([O-])C(Cl)Cl.[Co+3].[O-][Cl+3]([O-])([O-])[O-]`, for which the GI50 in assay [1], in assay [2], in assay [3], in [4], in [5] and in assay [6] was more than 100 µM each time. The GI50 in assay [7] was more than 100 µM; in assay [8], more than 100 µM; in assay [9] it was more than 100000 nM; in assay [10] it was more than 100 µM. For the same compound, the TGI in [1], in [2], in assay [3], in assay [4], in assay [5] and in assay [6] was more than 100 µM in each case. Besides, the TGI in [7], in [8], in assay [9] and in assay [10] was more than 100 µM throughout.
